Consider one molecule from patent US20230364175A1 (priority 2022, published 2023).

Converted amounts (≈) assume the structure as drawn. Read-outs that look alike come from different tables or passages of the source.

As a reminder, the logP is a log measure of how a compound divides between an organic and an aqueous phase. A word on the solubility: it is how much of the substance goes into solution per volume. A high value points to much dissolved substance.

One data set is described as follows: log P of melatonin. The data set is classed as physicochemical. The source says: (§1) In some embodiments, the one or more organic compounds includes cyclodextrin or a cyclodextrin derivative. In some embodiments, the one or more organic compounds includes hydroxypropyl-beta-cyclodextrin (HPBCD). In some embodiments, HPBCD is provided in a concentration ranging from about 0.49 to about 0.55 wt. %, including, for example, 0.50%, 0.51%, 0.52%, 0.53%, and 0.54%. […] The low solubility of melatonin can lead to limited absorption and bioavailability. With the addition of HPBCD, the solubility of melatonin is improved to about 10 mg/mL. In an aqueous solution in which HPBCD is present at a concentration ranging from about 0.49 to about 0.55 wt. %, HPBCD monomers have a hydrodynamic size of 10 nm and aggregates of HPBCD form up to 100 nm in diameter (measured via dynamic light scattering).

The nature of the next data set: physchem. It is filed as physicochemical.
Excerpt: as §1

For `COc1ccc2[nH]cc(CCNC(C)=O)c2c1` [melatonin], the logP in “log P of melatonin” turned out to be 1.6. The solubility in the data set “physchem” was ~100 µg/mL (≈ 0.431 mM); in “physchem” (aqueous with cosolvent or surfactant or cyclodextrin), ~10000 µg/mL (≈ 43.1 mM).
